Experimental data as given in PMC10931745 (International Journal of Molecular Sciences, 2024).

Legend:
[1] = test system: MDA-MB-231 cells; test: TUNEL assay (DNA damage/apoptosis); type: cell-based, human; details: 30 µM, 24 h
Description: The terminal deoxynucleotidyl transferase dUTP nick end labeling (TUNEL) assay was performed to detect cell apoptosis, following the manufacturer’s protocols (CF™488A TUNEL Assay Apoptosis Detection Kit, Biotium, Hayward, CA, USA), with some modifications, as previously indicated. Nuclei staining was performed using DAPI solution (0.2 µg/mL, Sigma Aldrich, Milan, Italy). A fluorescence microscope (Leica DM 6000) was used for the cell examinations at 20× magnification. LAS-X software 3.5.7.23225 was employed for the acquisition and processing of the images, which were representative of three independent experiments.

[2] = DPPH radical scavenging assay; type: biochemical
Description: The radical scavenging properties of the complexes on the 1,1-diphenyl-2-picrylhydrazil (DPPH) radical were evaluated as previously described.
All the complexes were used at different concentrations (10, 25, 50, 100, and 200 µg/mL) and the DPPH radical scavenging activity, measured at 517 nm using a microplate reader, was expressed as inhibition percentages (%IDPPH) compared to the initial concentration of DPPH (control) according to the following expression:(2) IDPPH (%)=ABSCTRL−ABSsample/ABSCTRL∗100 where ABSCTRL and ABSsample are the absorbance at 517 nm in the control and in the presence of samples, respectively.
The obtained IDPPH percentages allowed us to calculate the IC50 values using Graph-Pad Prism 9 software (GraphPad Inc., San Diego, CA, USA). Trolox was employed as a positive control, while caffeine and theophylline were reference compounds.

[3] = test system: ROS production in BALB/3T3 fibroblasts; test: Intracellular ROS detection with DCFH2-DA; type: cell-based, murine; details: 25 µM, 24 h pre-treatment
Description: In vitro detection of intracellular ROS on fibroblasts BALB/3T3 using DCFH2-DA The assay to evaluate the in vitro antioxidant activity was carried out using the murine BALB/3T3 fibroblasts that were plated in a white 96 MW and then treated with the complexes at a concentration of 25 µM for 24 h. Menadione (25 µM) was then added for 15 min to induce ROS production. After treatment, the cells were washed with PBS and treated with 25 μM 2′-7′-dichlorofluorescein diacetate (DCFH2-DA, Sigma-Aldrich, St. Louis, MO, USA), and then they were incubated for 40 min at 37 °C and 5% CO2. The probe DCFH2-DA penetrates cells where it is […] into a non-fluorescent form (DCFH2) by endogenous esterases. In the presence of intracellular ROS, non-fluorescent H2DCF is oxidized to the fluorescent 2′,7′-dichlorofluorescein (DCF). Then, the cells were washed with PBS and the fluorescence was detected using a multiplate reader (λex = 485 nm, λem = 535 nm). Based on the obtained fluorescence values, the ROS production inhibition % (IROS) vs. menadione was calculated using the following formula:(1) IROS vs. Menadione (%)=FMen−FSample/FMen∗100 where FMen represents the mean fluorescence obtained after treatment with menadione alone and Fsample represents the mean fluorescence obtained after the co-treatment with the complexes and menadione.

[4] = test system: MCF-7; test: MTT cell viability assay; type: cell-based, human; details: 72 h
Description: (§1) The cell lines used were purchased from American Type Culture Collection (ATCC, Manassas, VA, USA). Human breast cancer cells MCF-7 and MDA-MB-231, human mammary epithelial cell line MCF-10A, and mouse BALB/3T3 embryonic fibroblasts were cultured as already described by some of us. The murine macrophage cell line RAW 264.7 was maintained in Dulbecco’s Modified Eagle’s Medium (DMEM) high glucose (4.5 g/L) supplemented with 10% Fetal Bovine Serum (FBS), 1% L-glutamine, and 100 units/mL of penicillin/streptomycin. The cell cultures were maintained at the temperature of 37 °C in a humidified atmosphere containing 5% CO2.
(§2) The 3-(4,5-dimethylthiazol-2-yl)-2,5-diphenyl-2H-tetrazolium bromide (MTT) assay (Sigma Aldrich (St. Louis, MO, USA)) was carried out to study the in vitro anticancer activities of the complexes, following the previously reported protocol. The cells were incubated for 72 h with different concentrations of the tested compounds (0.1, 1, 10, 25, 50, 100, and 500 µM) and the IC50 values were calculated from the percent (%) of control using the software GraphPad Prism 9 (GraphPad Software, La Jolla, CA, USA).

[5] = test system: MDA-MB-231; test: MTT cell viability assay; type: cell-based, human; details: 72 h
Description: as §1, §2

[6] = test system: NF-κB localization in MDA-MB-231 cells; test: Immunofluorescence, NF-κB localization; type: cell-based, human; details: 15 µM
Description: After a PBS wash, cells were fixed using cold methanol (15 min at −20 °C) and incubated overnight at 4 °C with the primary antibodies raised against NF-κB, iNOS, TNF-α, and COX-1 and 2 (Santa Cruz Biotechnology Inc., Santa Cruz, CA, USA) diluted in BSA 2%, as previously described. […] DAPI (Sigma Aldrich, Milan, Italy) 0.2 µg/mL was added for 10 min for nuclei counterstaining. A fluorescence microscope (Leica DM 6000) was used for visualizing images, and LAS-X software 3.5.7.23225 was used for acquisition and processing.

[7] = test system: Escherichia coli (ATCC 25922); test: MIC/MBC broth dilution; type: cell-based
Description: (§3) The bacterial strains used for MIC and MBC value determinations expressed as µg/mL by the broth dilution method, according to CLSI guidelines, were the following:
(§4) -4 Gram-negative: Escherichia coli (ATCC® 25922^TM) and Klebsiella pneumoniae (ATCC® 13883^TM);
(§5) Increasing concentrations of the complexes (50, 70, 100, 150, and 200 µg/mL) were incubated with bacteria plated in 96-well microplates at 37 °C overnight as already reported, and then bacterial growth was checked at a wavelength of 600 nm using a Multiskan spectrophotometer (model Multiskan Ex Microplate; Thermo Scientific, Nyon, Switzerland). MIC or MBC values were obtained by comparing cell density with a positive control (bacterial cells grown in LB medium were added with only the vehicle, DMSO). The results were representative of three independent experiments performed in triplicate. Ampicillin, Gentamicin, and Cephalosporin (Sigma Aldrich A9393) were used as the control for strain sensitivity.

[8] = test system: Klebsiella pneumoniae (ATCC 13883); test: MIC/MBC broth dilution; type: cell-based
Description: as §3, §4, §5

[9] = test system: Staphylococcus aureus (ATCC 23235); test: MIC/MBC broth dilution; type: cell-based
Description: as §3
(§6) -3 Gram-positive: Enterococcus faecalis (ATCC® 19433^TM), Staphylococcus aureus (ATCC® 23235^TM), and Staphylococcus epidermidis (ATCC® 14990™).
as §5

[10] = test system: Enterococcus faecalis (ATCC 19433); test: MIC/MBC broth dilution; type: cell-based
Description: as §3, §6, §5

[11] = test system: Staphylococcus epidermidis (ATCC 14990); test: MIC/MBC broth dilution; type: cell-based
Description: as §3, §6, §5

SMILES	DNA damage (green nuclear fluorescence, TUNEL) [1]	IC50 [2]	ROS level reduction vs. menadione [3]	IC50 [4]	IC50 [5]	NF-κB intracellular localization [6]	M.B.C. E. coli [7]	M.I.C. E. coli [7]	M.B.C. K. pneumoniae [8]	M.I.C. K. pneumoniae [8]	M.B.C. S. aureus [9]	M.I.C. S. aureus [9]	M.B.C. E. faecalis [10]	M.I.C. E. faecalis [10]	M.B.C. S. epidermidis [11]	M.I.C. S. epidermidis [11]
Cn1c(=O)c2c(n(C)[c]([Au-][I])[n+]2CC(O)c2ccccc2)n(C)c1=O (racemic) [AuL1, 1,3,7-Trimethylxanthin-9-[(2-hydroxy-2-phenyl)ethyl-8-ylidene]Au(I) Iodide]	formation of a green nuclear fluorescence	> 500 µM	approximately 69%	73.8 ± 1.1 µM	14.7 ± 1.1 µM	prevalently located in the cytoplasm	> 200 µg/mL	150 µg/mL	> 200 µg/mL	150 µg/mL	> 200 µg/mL	150 µg/mL	> 200 µg/mL	150 µg/mL	> 150 µg/mL	125 µg/mL
CC(=O)[O][Ag-][c]1n(C)c2c(c(=O)n(C)c(=O)n2C)[n+]1C1CCCCC1O (centres unmarked) [AgL2OAc, 1,3,7-Trimethylxanthin-9-[cyclohexan-2-ol-8-ylidene]Ag(I) Acetate]	formation of a green nuclear fluorescence	> 500 µM	~59%	28.7 ± 1 µM	19.4 ± 1 µM	prevalently located in the cytoplasm	> 150 µg/mL	100 µg/mL	> 150 µg/mL	125 µg/mL	> 150 µg/mL	100 µg/mL	> 200 µg/mL	150 µg/mL	> 125 µg/mL	100 µg/mL
